# Molecular target: human recombinant H-PGDS (Homo sapiens, UniProt O60760)
# Assay: Fluorescence Intensity h-PGDS TBA Enzyme Assay
# Type: biochemical
# Settings: 1:175,000 human recombinant H-PGDS, highest inhibitor concentration typically 1 μM
# How it was run: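 Readout is PGH2 depletion: after a 42 s reaction with 5.0 μM PGH2 and 2.5 mM glutathione (pH 8.0 Tris, 10 min inhibitor preincubation), Fe(II) converts leftover PGH2 to MDA, which forms a fluorescent TBA complex. IC50s come from 11-point, 3-fold duplicate curves, 4-parameter fit.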
# Chain of human recombinant H-PGDS (O60760 whole entry): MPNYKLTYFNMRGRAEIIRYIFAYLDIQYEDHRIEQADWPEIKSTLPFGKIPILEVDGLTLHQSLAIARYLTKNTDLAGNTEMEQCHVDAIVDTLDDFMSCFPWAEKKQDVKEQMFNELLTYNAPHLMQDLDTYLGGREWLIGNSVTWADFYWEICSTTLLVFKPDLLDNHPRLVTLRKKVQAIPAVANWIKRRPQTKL
row,IC50,SMILES
1,38.7 nM,"CC(O)CNC(=O)c1ccc(-c2cccc(F)c2)nc1 (centres unmarked) [Example 198, 6-(3-Fluorophenyl)-N-(2-hydroxypropyl)nicotinamide]"
2,622 nM,"O=C(NCc1noc(C(=O)N2CC[C@H](O)C2)n1)c1ccc(-c2cccc(F)c2)nc1 [Example 199, 6-(3-Fluorophenyl)-N-[(5-{[(3S)-3-hydroxypyrrolidin-1-yl]carbonyl}-1,2,4-oxadiazol-3-yl)methyl]nicotinamide]"
3,447 nM,"O=C(NCCc1nnc(-c2ccc(F)cc2)o1)c1ccc(-c2cccc(F)c2)nc1 [Example 200, 6-(3-Fluorophenyl)-N-{2-[5-(4-fluorophenyl)-1,3,4-oxadiazol-2-yl]ethyl}nicotinamide]"
4,59.2 nM,"CCOC(=O)Cc1noc(CNC(=O)c2ccc(-c3cccc(F)c3)nc2)n1 [Example 201, Ethyl {5-[({[6-(3-fluorophenyl)pyridin-3-yl]carbonyl}amino)methyl]-1,2,4-oxadiazol-3-yl}acetate]"
5,99.9 nM,"COc1ccc(C(NC(=O)c2ccc(-c3cccc(F)c3)nc2)C2CC2)cc1 (centres unmarked) [Example 202, N-[Cyclopropyl(4-methoxyphenyl)methyl]-6-(3-fluorophenyl)nicotinamide]"
6,150 nM,"Cc1cc(CNC(=O)c2ccc(-c3cccc(F)c3)nc2)c(C(F)(F)F)o1 [Example 203, 6-(3-Fluorophenyl)-N-{[5-methyl-2-(trifluoromethyl)-3-furyl]methyl}nicotinamide]"
7,125 nM,"COc1ccc(C(CNC(=O)c2ccc(-c3cccc(F)c3)nc2)N(C)C)cc1 (centres unmarked) [Example 204, N-[2-(Dimethylamino)-2-(4-methoxyphenyl)ethyl]-6-(3-fluorophenyl)nicotinamide]"
8,29.9 nM,"CCOC(=O)Cc1ccc(CNC(=O)c2ccc(-c3cccc(F)c3)nc2)cc1 [Example 205, Ethyl {4-[({[6-(3-fluorophenyl)pyridin-3-yl]carbonyl}amino)methyl]phenyl}acetate]"
9,16.6 nM,"CC(C)Cc1nnc(CCNC(=O)c2ccc(-c3cccc(F)c3)nc2)o1 [Example 206, 6-(3-Fluorophenyl)-N-[2-(5-isobutyl-1,3,4-oxadiazol-2-yl)ethyl]nicotinamide]"
10,27.1 nM,"O=C(NCCc1nnc(C2CC2)o1)c1ccc(-c2cccc(F)c2)nc1 [Example 207, N-[2-(5-Cyclopropyl-1,3,4-oxadiazol-2-yl)ethyl]-6-(3-fluorophenyl)nicotinamide]"
11,18.3 nM,"COc1ccc2nc(CCNC(=O)c3ccc(-c4cccc(F)c4)nc3)[nH]c2c1 [Example 208, 6-(3-Fluorophenyl)-N-[2-(6-methoxy-1H-benzimidazol-2-yl)ethyl]nicotinamide]"
12,13.1 nM,"CCOC(=O)CCNC(=O)c1ccc(-c2cccc(F)c2)nc1 [Example 209, Ethyl N-{[6-(3-fluorophenyl)pyridin-3-yl]carbonyl}-beta-alaninate]"
13,39.2 nM,"O=C(NC(CN1CCOCC1)c1ccccc1)c1ccc(-c2cccc(F)c2)nc1 (centres unmarked) [Example 210, 6-(3-Fluorophenyl)-N-(2-morpholin-4-yl-1-phenylethyl)nicotinamide]"
14,362 nM,"O=C(NCc1noc(C(=O)N2CC[C@@H](O)C2)n1)c1ccc(-c2cccc(F)c2)nc1 [Example 211, 6-(3-Fluorophenyl)-N-[(5-{[(3R)-3-hydroxypyrrolidin-1-yl]carbonyl}-1,2,4-oxadiazol-3-yl)methyl]nicotinamide]"
15,297 nM,"N#CC(NC(=O)c1ccc(-c2cccc(F)c2)nc1)C(=O)NCCN1CCOCC1 (centres unmarked) [Example 212, N-{1-Cyano-2-[(2-morpholin-4-ylethyl)amino]-2-oxoethyl}-6-(3-fluorophenyl)nicotinamide]"
16,28.3 nM,"Cc1cc(C)cc(-c2nnc(CCNC(=O)c3ccc(-c4cccc(F)c4)nc3)o2)c1 [Example 213, N-{2-[5-(3,5-Dimethylphenyl)-1,3,4-oxadiazol-2-yl]ethyl}-6-(3-fluorophenyl)nicotinamide]"
17,20.7 nM,"O=C(NCCCCNC(=O)c1ccc(-c2cccc(F)c2)nc1)OCc1ccccc1 [Example 214, Benzyl [4-({[6-(3-fluorophenyl)pyridin-3-yl]carbonyl}amino)butyl] carbamate]"
18,101 nM,"O=C(NCCN1CCCCC1CO)c1ccc(-c2cccc(F)c2)nc1 (centres unmarked) [Example 215, 6-(3-Fluorophenyl)-N-{2-[2-(hydroxymethyl)piperidin-1-yl]ethyl}nicotinamide]"
19,128 nM,"CC(C)OCCCN1CC(CNC(=O)c2ccc(-c3cccc(F)c3)nc2)OCC1=O (centres unmarked) [Example 216, 6-(3-Fluorophenyl)-N-{[4-(3-isopropoxypropyl)-5-oxomorpholin-2-yl]methyl}nicotinamide]"
20,39.9 nM,"CCOC(=O)c1nnc(CNC(=O)c2ccc(-c3cccc(F)c3)nc2)o1 [Example 217, Ethyl 5-[({[6-(3-fluorophenyl)pyridin-3-yl]carbonyl}amino)methyl]-1,3,4-oxadiazole-2-carboxylate]"
21,27.6 nM,"CNS(=O)(=O)c1ccc(CNC(=O)c2ccc(-c3cccc(C)c3)nc2)cc1 [Example 218, N-{4-[(Methylamino)sulfonyl]benzyl}-6-(3-methylphenyl)nicotinamide]"
22,89.4 nM,"COC(=O)[C@H](C)NC(=O)c1ccc(-c2cccc(C)c2)nc1 [Example 219, Methyl N-{[6-(3-methylphenyl)pyridin-3-yl]carbonyl}alaninate]"

row,IC50,SMILES
1,93.4 nM,"CCOC(=O)C1(NC(=O)c2ccc(-c3cccc(C)c3)nc2)CCOCC1 [Example 220, Ethyl 4-({[6-(3-methylphenyl)pyridin-3-yl]carbonyl}amino)tetrahydro-2H-pyran-4-carboxylate]"
2,55.9 nM,"CCOC(=O)CC(NC(=O)c1ccc(-c2cccc(C)c2)nc1)c1ccc(Cl)cc1 (centres unmarked) [Example 221, Ethyl 3-(4-chlorophenyl)-3-({[6-(3-methylphenyl)pyridin-3-yl]carbonyl}amino)propanoate]"
3,351 nM,"Cc1cccc(-c2ccc(C(=O)NCc3nc(CS(C)(=O)=O)no3)cn2)c1 [Example 222, 6-(3-Methylphenyl)-N-({3-[(methylsulfonyl)methyl]-1,2,4-oxadiazol-5-yl}methyl)nicotinamide]"
4,44.1 nM,"COC(=O)CCNC(=O)c1ccc(-c2cccc(C)c2)nc1 [Example 223, Methyl N-{[6-(3-methylphenyl)pyridin-3-yl]carbonyl}-beta-alaninate]"
5,56.4 nM,"Cc1cccc(-c2ccc(C(=O)NCCN3CCCCC3=O)cn2)c1 [Example 224, 6-(3-Methylphenyl)-N-[2-(2-oxopiperidin-1-yl)ethyl]nicotinamide]"
6,265 nM,"Cc1cccc(-c2ccc(C(=O)NCCN3CCCCC3)cn2)c1 [Example 225, 6-(3-Methylphenyl)-N-(2-piperidin-1-ylethyl)nicotinamide]"
7,12.4 nM,"Cc1cccc(-c2ccc(C(=O)NCc3ccccc3C)cn2)c1 [Example 226, N-(2-Methylbenzyl)-6-(3-methylphenyl)nicotinamide]"
8,62.2 nM,"Cc1ccc(CN2CCC(NC(=O)c3ccc(-c4cccc(C)c4)nc3)C2=O)cc1 (centres unmarked) [Example 227, N-[1-(4-Methylbenzyl)-2-oxopyrrolidin-3-yl]-6-(3-methylphenyl)nicotinamide]"
9,6.51 nM,"Cc1cccc(-c2ccc(C(=O)Nc3ccncc3)cn2)c1 [Example 228, 6-(3-Methylphenyl)-N-pyridin-4-ylnicotinamide]"
10,125 nM,"COC(=O)CNC(=O)[C@H](C)NC(=O)c1ccc(-c2cccc(C)c2)nc1 [Example 229, Methyl N-{[6-(3-methylphenyl)pyridin-3-yl]carbonyl}-L-alanylglycinate]"
11,47.2 nM,"COC(=O)CC(NC(=O)c1ccc(-c2cccc(C)c2)nc1)c1cccnc1 (centres unmarked) [Example 230, Methyl 3-({[6-(3-methylphenyl)pyridin-3-yl]carbonyl}amino)-3-pyridin-3-ylpropanoate]"
12,7.86 nM,"Cc1cccc(-c2ccc(C(=O)NCCCNc3ccccn3)cn2)c1 [Example 231, 6-(3-Methylphenyl)-N-[3-(pyridin-2-ylamino)propyl]nicotinamide]"
13,137 nM,"COC(C)(C)CNC(=O)c1ccc(-c2cccc(C)c2)nc1 [Example 232, N-(2-Methoxy-2-methylpropyl)-6-(3-methylphenyl)nicotinamide]"
14,85.5 nM,"Cc1cccc(-c2ccc(C(=O)NCCc3nc(C)no3)cn2)c1 [Example 233, N-[2-(3-Methyl-1,2,4-oxadiazol-5-yl)ethyl]-6-(3-methylphenyl)nicotinamide]"
15,66.2 nM,"Cc1cccc(-c2ccc(C(=O)NCC(C)O)cn2)c1 (centres unmarked) [Example 234, N-(2-Hydroxypropyl)-6-(3-methylphenyl)nicotinamide]"
16,38.8 nM,"CCC1CCN(CCNC(=O)c2ccc(-c3cccc(C)c3)nc2)CC1 [Example 235, N-[2-(4-Ethylpiperidin-1-yl)ethyl]-6-(3-methylphenyl)nicotinamide]"
17,109 nM,"Cc1cccc(-c2ccc(C(=O)NCC(=O)OCc3ccccc3)cn2)c1 [Example 236, Benzyl N-{[6-(3-methylphenyl)pyridin-3-yl]carbonyl}glycinate]"
18,504 nM,"Cc1cccc(-c2ccc(C(=O)NCCN3CCCC3)cn2)c1 [Example 237, 6-(3-Methylphenyl)-N-(2-pyrrolidin-1-ylethyl)nicotinamide]"
19,67.6 nM,"Cc1cccc(-c2ccc(C(=O)NCC3CCCCO3)cn2)c1 (centres unmarked) [Example 239, 6-(3-Methylphenyl)-N-(tetrahydro-2H-pyran-2-ylmethyl)nicotinamide]"
20,10.7 nM,"Cc1cccc(-c2ccc(C(=O)NCCc3ccncc3)cn2)c1 [Example 240, 6-(3-Methylphenyl)-N-(2-pyridin-4-ylethyl)nicotinamide]"
21,150 nM,"COC(=O)CNC(=O)c1ccc(-c2cccc(C)c2)nc1 [Example 241, Methyl N-{[6-(3-methylphenyl)pyridin-3-yl]carbonyl}glycinate]"
22,300 nM,"Cc1cccc(-c2ccc(C(=O)NCC(C)(C)CN(C)C)cn2)c1 [Example 242, N-[3-(Dimethylamino)-2,2-dimethylpropyl]-6-(3-methylphenyl)nicotinamide]"

# From patent US20110306597A1, “Nicotinamide Derivatives” (priority 2008, published 2011)
